Key:
DLD1 NRF2-GOF [1] = details: 72 h; CellTiter-Glo viability
Outline: (§1)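 In 384-well plates, library compounds were applied at 5 concentrations spanning a 10,000-fold range to isogenic DLD1 colorectal cancer cells, NRF2 wild-type or CRISPR gain-of-function, maintained in DMEM with 10% FBS. A Pherastar FS reader recorded CellTiter-Glo signal at 72 h, with normalisation to vehicle wells and 100-μM positive-control wells. Curves were fitted with a four-parameter logistic model. EC50 and drug sensitivity score, a normalised area under the curve, came from those curves.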

DLD1 NRF2-WT [2] = details: 72 h; CellTiter-Glo viability
Outline: as §1

DLD1 NRF2-GOF [3] = assay: TC50 cytotoxicity; higher = less toxic; details: 72 h; CellTox Green cytotoxicity
Outline: (§2)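 TC50 and drug sensitivity score, a normalised area under the curve, were derived by logistic dose-response fits of cytotoxicity. The cells were an isogenic DLD1 colorectal cancer pair, NRF2 wild-type or CRISPR-edited, kept in DMEM with 10% FBS. Compounds were tested in 384-well plates at 5 concentrations across a 10,000-fold range for 72 h. Readings with CellTox Green on a Pherastar FS reader were normalised to vehicle wells and 100-μM positive-control wells.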

DLD1 NRF2-WT [4] = assay: TC50 cytotoxicity; higher = less toxic; details: 72 h; CellTox Green cytotoxicity
Outline: as §2

DLD1 NRF2-GOF [5] = assay: drug sensitivity score (DSS) cytotoxicity (DSS score); higher = more toxic; extreme values may be limits of the assay; details: 72 h; CellTox Green cytotoxicity
Outline: as §2

DLD1 NRF2-WT [6] = assay: as above; details: 72 h; CellTox Green cytotoxicity
Outline: as §2

DLD1 NRF2-GOF [7] = assay: drug sensitivity score (DSS) viability (DSS score); higher = more sensitive; extreme values may be limits of the assay; details: 72 h; CellTiter-Glo viability
Outline: as §1

DLD1 NRF2-WT [8] = assay: as above; details: 72 h; CellTiter-Glo viability
Outline: as §1

| Structure (SMILES) | EC50 viability (DLD1 NRF2-GOF [1]) | EC50 viability (DLD1 NRF2-WT [2]) | TC50 cytotoxicity (DLD1 NRF2-GOF [3]) | TC50 cytotoxicity (DLD1 NRF2-WT [4]) | drug sensitivity score (DLD1 NRF2-GOF [5]) | drug sensitivity score (DLD1 NRF2-WT [6]) | drug sensitivity score (DLD1 NRF2-GOF [7]) | drug sensitivity score (DLD1 NRF2-WT [8]) |
| --- | --- | --- | --- | --- | --- | --- | --- | --- |
| O=C(/C=C/c1cccc(S(=O)(=O)Nc2ccccc2)c1)NO [Belinostat] | 1260 nM | 1100 nM | > 10000 nM | 1530 nM | 0 | 2.6 | 7.1 | 9.9 |
| COc1cc(N2CCC(N3CCN(C)CC3)CC2)ccc1Nc1ncc(Cl)c(Nc2ccccc2P(C)(C)=O)n1 [Brigatinib] | 55.1 nM | 399 nM | > 1000 nM | > 1000 nM | 0 | 0 | 3.4 | 1.1 |
| O=C(Nc1nc2cccc(-c3ccc(CN4CCS(=O)(=O)CC4)cc3)n2n1)C1CC1 [Filgotinib] | 790 nM | 2090 nM | > 10000 nM | > 10000 nM | 0.8 | 0 | 11.7 | 6.7 |
| Cc1cnc(Nc2ccc(OCCN3CCCC3)cc2)nc1Nc1cccc(S(=O)(=O)NC(C)(C)C)c1 [Fedratinib] | 1890 nM | 1410 nM | 2500 nM | 2400 nM | 4.3 | 3.8 | 8.2 | 9.6 |
| C[C@]1(O)C[C@@H](c2nc(-c3ccc4ccc(-c5ccccc5)nc4c3)c3c(N)nccn32)C1 [Linsitinib] | > 10000 nM | > 10000 nM | > 10000 nM | > 10000 nM | 0 | 0 | 0 | 0 |
| CNC(=O)c1ccc(N2C(=S)N(c3ccc(C#N)c(C(F)(F)F)c3)C(=O)C2(C)C)cc1F [Enzalutamide] | > 10000 nM | > 10000 nM | > 10000 nM | > 10000 nM | 0 | 0 | 0.1 | 0.5 |
| O=c1[nH]cc(F)c(=O)[nH]1 [Fluorouracil] | 176 nM | 1 nM | > 10000 nM | > 10000 nM | 0 | 0 | 7.1 | 10.3 |
| Cc1sc2c(c1C)C(c1ccc(Cl)cc1)=N[C@@H](CC(=O)OC(C)(C)C)c1nnc(C)n1-2 [JQ1] | 2710 nM | 272 nM | > 10000 nM | > 10000 nM | 0 | 0 | 2.6 | 8.8 |
| CN1CCN(CCOc2cc(OC3CCOCC3)c3c(Nc4c(Cl)ccc5c4OCO5)ncnc3c2)CC1 [Saracatinib] | > 10000 nM | 2480 nM | > 10000 nM | > 10000 nM | 0.1 | 0.7 | 0.3 | 2.4 |
| CC(C)(C)Cn1c(N)nc2ccc(-c3[nH]c(C(C)(C)C)nc3-c3ccc(F)cc3)nc21 [Ralimetinib] | 2830 nM | 1940 nM | > 10000 nM | > 10000 nM | 0 | 0 | 2.9 | 4.3 |
| CCc1cncnc1N1CCN(Cc2nc3cc(C(F)(F)F)ccc3[nH]2)CC1 | 1530 nM | 1510 nM | > 10000 nM | > 10000 nM | 0 | 0 | 3 | 4.6 |
| CN1CCN(c2nc(C3=C(c4c[nH]c5ccccc45)C(=O)NC3=O)c3ccccc3n2)CC1 [Sotrastaurin] | > 10000 nM | > 10000 nM | > 10000 nM | > 10000 nM | 0 | 0 | 0 | 1.2 |
| O=c1[nH]c(=O)n([C@H]2C[C@H](O)[C@@H](CO)O2)cc1C(F)(F)F [Trifluridine] | 2510 nM | > 10000 nM | > 10000 nM | > 10000 nM | 0 | 0 | 2.2 | 0 |
| CC[C@@H]1C(=O)OC[C@@H]1Cc1cncn1C [Pilocarpine] | > 40000 nM | > 40000 nM | > 40000 nM | > 40000 nM | 0 | 0 | 0.1 | 0 |

The next lines start with results.

| EC50 viability (DLD1 NRF2-GOF [1]) | EC50 viability (DLD1 NRF2-WT [2]) | Structure (SMILES) | TC50 cytotoxicity (DLD1 NRF2-GOF [3]) | TC50 cytotoxicity (DLD1 NRF2-WT [4]) | drug sensitivity score (DLD1 NRF2-GOF [5]) | drug sensitivity score (DLD1 NRF2-WT [6]) | drug sensitivity score (DLD1 NRF2-GOF [7]) | drug sensitivity score (DLD1 NRF2-WT [8]) |
| --- | --- | --- | --- | --- | --- | --- | --- | --- |
| 112 nM | 169 nM | CC[C@H](CC#N)OC(=O)N[C@@H](C)c1cccc(NC(=O)Nc2ccc(-c3cnco3)c(OC)c2)c1 [AVN944] | > 10000 nM | > 10000 nM | 0 | 0 | 15.9 | 15.6 |
| 3030 nM | 2670 nM | C[C@@H]1COCCN1c1cc(C2([S@](C)(=N)=O)CC2)nc(-c2cc[nH]c3nccc2-3)n1 [AZD6738] | > 25000 nM | > 25000 nM | 0 | 0 | 4.5 | 7.8 |
| 106 nM | 175 nM | NC(=O)Nc1cc(-c2cccc(F)c2)sc1C(=O)N[C@H]1CCCNC1 [AZD7762] | 362 nM | 247 nM | 1.7 | 2.2 | 7.6 | 5.3 |
| > 1000 nM | 0.9 nM | Cc1cc(-c2nc(-c3ccc(OC(F)(F)F)cc3)no2)nn1Cc1ccnc(N2CCN(C3CC3)CC2)c1 [BAY 87-2243] | > 1000 nM | > 1000 nM | 0 | 0 | 1.7 | 16.2 |
| 626 nM | 250 nM | CCn1c(=O)c(-c2ccc(Cl)cc2Cl)cc2cnc(Nc3ccc(N4CCNCC4)c(F)c3)nc21 [FRAX486] | > 5000 nM | > 5000 nM | 0 | 0 | 7.1 | 9.8 |
